Assay results taken from patent publication US20190135793A1, “HETEROCYCLIC INHIBITORS OF KDM5 FOR THE TREATMENT OF DISEASE” (Board of Regents, The University of Texas System, priority 2017, published 2019).
Read-outs that look alike come from different tables or passages of the source.

How the values were obtained:
[1] = biological target: T1, KDM4C (Homo sapiens, UniProt Q9H3R0); test: KDM4C AlphaScreen assay; assay type: biochemical; details: AlphaScreen; full length KDM4C 0.2 nM; biotinylated H3K9Me3 peptide 3 nM; 30 minutes at room temperature
T1 construct: Full length of KDM5B and KDM4C protein were purchased from Active Motif; purchased Active Motif 31858
T1 sequence (Q9H3R0 1-1056): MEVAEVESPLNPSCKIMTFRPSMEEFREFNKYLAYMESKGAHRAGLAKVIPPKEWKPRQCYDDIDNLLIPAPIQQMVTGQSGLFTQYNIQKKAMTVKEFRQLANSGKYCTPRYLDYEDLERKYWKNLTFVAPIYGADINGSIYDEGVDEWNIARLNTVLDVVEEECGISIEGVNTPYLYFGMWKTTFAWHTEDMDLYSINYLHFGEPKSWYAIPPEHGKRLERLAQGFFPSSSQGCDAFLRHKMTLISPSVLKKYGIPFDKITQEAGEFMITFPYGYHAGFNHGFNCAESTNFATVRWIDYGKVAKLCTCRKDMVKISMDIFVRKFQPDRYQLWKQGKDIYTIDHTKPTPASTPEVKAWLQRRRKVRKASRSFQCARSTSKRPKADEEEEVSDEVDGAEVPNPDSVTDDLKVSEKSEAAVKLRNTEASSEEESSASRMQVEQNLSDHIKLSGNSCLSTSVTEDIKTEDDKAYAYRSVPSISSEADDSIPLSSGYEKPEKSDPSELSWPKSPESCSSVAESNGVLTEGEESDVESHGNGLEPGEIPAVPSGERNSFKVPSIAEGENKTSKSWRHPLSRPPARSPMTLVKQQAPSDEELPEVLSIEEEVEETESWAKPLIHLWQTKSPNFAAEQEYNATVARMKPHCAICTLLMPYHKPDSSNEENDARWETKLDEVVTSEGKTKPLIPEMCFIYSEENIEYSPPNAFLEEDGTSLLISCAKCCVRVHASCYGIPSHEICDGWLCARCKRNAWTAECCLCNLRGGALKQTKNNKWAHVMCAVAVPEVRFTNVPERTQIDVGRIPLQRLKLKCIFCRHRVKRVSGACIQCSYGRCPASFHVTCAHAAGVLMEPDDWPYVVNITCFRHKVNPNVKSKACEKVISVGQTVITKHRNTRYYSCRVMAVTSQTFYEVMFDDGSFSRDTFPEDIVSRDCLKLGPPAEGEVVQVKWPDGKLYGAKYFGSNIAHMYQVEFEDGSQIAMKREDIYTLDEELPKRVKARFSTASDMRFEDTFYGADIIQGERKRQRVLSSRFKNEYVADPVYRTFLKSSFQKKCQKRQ
In short: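 Full-length KDM4C (0.2 nM final) was preincubated 15 min at RT with compound in HEPES pH 7.4 with Tween-20, BSA and TCEP. The reaction ran 30 min at RT after adding biotinylated peptide (3 nM final) in buffer with Fe(II), α-ketoglutarate and ascorbate. EDTA-containing AlphaScreen beads stopped it; IC50 was curve-fitted.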

[2] = biological target: T2, KDM5B (Homo sapiens, UniProt Q9UGL1); test: biochemical
T2 construct: Full length of KDM5B and KDM4C protein were purchased from Active Motif; purchased Active Motif 31832
In short: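 KDM5B (0.5 nM final) was preincubated with compound for 15 min at room temperature, then reacted with biotinylated peptide (3 nM final) for 25 min at room temperature.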

[3] = AlphaScreen, full length KDM5B 0.5 nM, biotinylated H3K4Me3 peptide 3 nM, 25 minutes at room temperature, read-out: KDM5B (IC50)

T2 sequence (Q9UGL1 whole entry): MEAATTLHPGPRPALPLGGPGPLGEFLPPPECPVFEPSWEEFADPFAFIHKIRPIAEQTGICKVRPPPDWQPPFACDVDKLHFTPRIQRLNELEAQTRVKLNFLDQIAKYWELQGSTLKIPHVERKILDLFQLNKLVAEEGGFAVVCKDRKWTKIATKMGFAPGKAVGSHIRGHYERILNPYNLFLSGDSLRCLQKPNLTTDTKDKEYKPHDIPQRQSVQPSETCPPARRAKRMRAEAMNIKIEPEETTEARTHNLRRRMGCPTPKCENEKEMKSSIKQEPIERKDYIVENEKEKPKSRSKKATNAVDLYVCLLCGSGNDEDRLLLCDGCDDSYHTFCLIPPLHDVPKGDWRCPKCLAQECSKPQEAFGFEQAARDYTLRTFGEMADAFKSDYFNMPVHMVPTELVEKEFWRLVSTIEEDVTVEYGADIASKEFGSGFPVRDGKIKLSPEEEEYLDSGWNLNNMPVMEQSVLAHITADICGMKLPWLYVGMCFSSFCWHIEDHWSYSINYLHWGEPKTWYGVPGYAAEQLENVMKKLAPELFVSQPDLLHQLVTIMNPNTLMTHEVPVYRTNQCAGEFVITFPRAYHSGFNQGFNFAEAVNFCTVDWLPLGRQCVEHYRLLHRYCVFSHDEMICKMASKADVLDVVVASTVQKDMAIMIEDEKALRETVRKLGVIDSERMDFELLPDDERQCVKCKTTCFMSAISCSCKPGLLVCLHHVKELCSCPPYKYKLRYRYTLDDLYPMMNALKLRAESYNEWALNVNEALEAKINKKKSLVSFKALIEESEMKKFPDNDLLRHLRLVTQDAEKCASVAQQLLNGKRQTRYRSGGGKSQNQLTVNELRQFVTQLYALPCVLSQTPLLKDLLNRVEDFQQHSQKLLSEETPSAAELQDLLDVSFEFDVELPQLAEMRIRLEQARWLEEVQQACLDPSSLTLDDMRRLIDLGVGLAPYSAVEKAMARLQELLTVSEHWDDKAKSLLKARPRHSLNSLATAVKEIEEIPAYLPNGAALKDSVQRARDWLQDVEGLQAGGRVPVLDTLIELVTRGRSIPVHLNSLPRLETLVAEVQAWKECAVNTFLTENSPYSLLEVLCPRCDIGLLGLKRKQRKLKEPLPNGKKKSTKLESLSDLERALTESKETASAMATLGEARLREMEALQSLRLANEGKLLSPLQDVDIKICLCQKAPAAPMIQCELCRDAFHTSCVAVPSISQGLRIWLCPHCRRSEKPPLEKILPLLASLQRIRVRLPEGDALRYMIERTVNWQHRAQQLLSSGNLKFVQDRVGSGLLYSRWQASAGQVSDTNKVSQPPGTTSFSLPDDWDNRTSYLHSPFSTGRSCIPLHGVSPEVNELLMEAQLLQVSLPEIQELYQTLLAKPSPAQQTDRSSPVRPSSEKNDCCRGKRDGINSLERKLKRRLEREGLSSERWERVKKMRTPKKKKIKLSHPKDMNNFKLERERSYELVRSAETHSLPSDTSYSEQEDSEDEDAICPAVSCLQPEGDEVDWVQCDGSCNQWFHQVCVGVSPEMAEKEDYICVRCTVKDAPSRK

Row | SMILES | IC50 [1] | IC50 [2, 3] | IC50 [2]
1 | CC(C)c1c(O)nc(-n2ccnc2)nc1OCCN1CCCCC1 [Example 130, 2-(1H-Imidazol-1-yl)-6-[2-(piperidin-1-yl)ethoxy]-5-(propan-2-yl)pyrimidin-4-ol] | 3670 nM |  | 27 nM
2 | CC(C)c1c(O)nc(-n2ccnc2)nc1OC1CCOC1 (stereo not shown) [Example 135, 2-(1H-Imidazol-1-yl)-6-(oxolan-3-yloxy)-5-(propan-2-yl)pyrimidin-4-ol] | 2050 nM |  | 47 nM
3 | CC(CN1CCOCC1)Oc1nc(-n2ccnc2)nc(O)c1C(C)C (stereo not shown) [Example 138, 2-(1H-Imidazol-1-yl)-6-{[1-(morpholin-4-yl)propan-2-yl]oxy}-5-(propan-2-yl)-pyrimidin-4-ol] | 5560 nM |  | 65 nM
4 | CC(C)c1c(O)nc(-n2ccnc2)nc1OCC1CCOCC1 [Example 139, 2-(1H-Imidazol-1-yl)-6-(oxan-4-ylmethoxy)-5-(propan-2-yl)pyrimidin-4-ol] | 3680 nM | 75 nM | 
5 | CCCCCCOc1nc(-n2ccnc2)nc(O)c1C(C)C [Example 140, 6-(Hexyloxy)-2-(1H-imidazol-1-yl)-5-(propan-2-yl)pyrimidin-4-ol] | 50000 nM | 341 nM | 
6 | CC(C)c1c(O)nc(-n2ccnc2)nc1OCC(=O)NCc1cccnc1 [Example 141, 2-{[6-Hydroxy-2-(1H-imidazol-1-yl)-5-(propan-2-yl)pyrimidin-4-yl]oxy}-N-(pyridin-3-ylmethyl)-acetamide] | 4400 nM | 33 nM | 
7 | CC(C)c1c(O)nc(-n2ccnc2)nc1OCC(=O)N1CCOCC1 [Example 142, 2-{[6-Hydroxy-2-(1H-imidazol-1-yl)-5-(propan-2-yl)pyrimidin-4-yl]oxy}-1-(morpholin-4-yl)ethan-1-one] | 2130 nM |  | 35 nM
8 | CC(C)c1c(O)nc(-c2cncs2)nc1OCc1cncnc1 [Example 143, 5-(Propan-2-yl)-6-(pyrimidin-5-ylmethoxy)-2-(1,3-thiazol-5-yl)pyrimidin-4-ol] | 2960 nM |  | 138 nM
9 | CC(C)c1c(O)nc(-c2cncs2)nc1OCc1ccncc1 [Example 144, 5-(Propan-2-yl)-6-(pyridin-4-ylmethoxy)-2-(1,3-thiazol-5-yl)pyrimidin-4-ol] | 2920 nM | 140 nM | 
10 | CC(C)c1c(O)nc(-c2cncs2)nc1OCC(C)(C)CO [Example 147, 6-(3-Hydroxy-2,2-dimethylpropoxy)-5-(propan-2-yl)-2-(1,3-thiazol-5-yl)-pyrimidin-4-ol] | 12400 nM |  | 1470 nM
11 | Cc1nc(-n2ccnc2C)nc(O)c1C(C)C [Example 148, 6-Methyl-2-(2-methyl-1H-imidazol-1-yl)-5-(propan-2-yl)pyrimidin-4-ol] | 9460 nM |  | 480 nM
12 | Cc1cn(-c2nc(O)c(C(C)C)c(OCc3cccnc3)n2)cn1 [Example 151, 2-(4-Methyl-1H-imidazol-1-yl)-5-(propan-2-yl)-6-(pyridin-3-ylmethoxy)-pyrimidin-4-ol] | 8780 nM | 583 nM | 
13 | CC(C)c1c(O)nc(-c2cncs2)nc1-c1cnn(C(C)C)c1 [Example 152, 5-(Propan-2-yl)-6-[1-(propan-2-yl)-1H-pyrazol-4-yl]-2-(1,3-thiazol-5-yl)pyrimidin-4-ol] | 7240 nM |  | 151 nM
14 | Cc1nc(-c2cncs2)nc(O)c1C(C)C [Example 155, 6-Methyl-5-(propan-2-yl)-2-(1,3-thiazol-5-yl)-pyrimidin-4-ol] | 1650 nM |  | 65 nM
15 | CCc1c(C)nc(-c2cncs2)nc1O [Example 156, 5-Ethyl-6-methyl-2-(1,3-thiazol-5-yl)-pyrimidin-4-ol] | 8060 nM |  | 660 nM
16 | Cc1nc(-c2nccs2)nc(O)c1C(C)C [Example 158, 6-Methyl-5-(propan-2-yl)-2-(1,3-thiazol-2-yl)-pyrimidin-4-ol] | 30000 nM | 2410 nM | 

More lines, in order of falling IC50 [1], values ahead:

Row | IC50 [1] | IC50 [2, 3] | IC50 [2] | SMILES
17 | 50000 nM |  | 3320 nM | Cc1nc(-c2ccncc2)nc(O)c1C(C)C [Example 149, 6-Methyl-5-(propan-2-yl)-2-(pyridin-4-yl)pyrimidin-4-ol]
18 | 21000 nM |  | 163 nM | CC(C)c1c(O)nc(-c2cncs2)nc1OCc1ccccn1 [Example 145, 5-(Propan-2-yl)-6-(pyridin-2-ylmethoxy)-2-(1,3-thiazol-5-yl)pyrimidin-4-ol]
19 | 16900 nM |  | 1120 nM | Cc1nc(-c2scnc2C(=O)NCc2ccccc2)nc(O)c1C(C)C [Example 150, N-benzyl-5-[6-methyl-4-oxo-5-(propan-2-yl)-1,4-dihydropyrimidin-2-yl]-1,3-thiazole-4-carboxamide]
20 | 13900 nM |  | 2130 nM | CC(C)c1c(O)nc(-c2cncs2)nc1-c1cnn(C2CCNCC2)c1 [Example 154, 6-[1-(Piperidin-4-yl)-1H-pyrazol-4-yl]-5-(propan-2-yl)-2-(1,3-thiazol-5-yl)pyrimidin-4-ol]
21 | 5820 nM | 805 nM |  | CC(C)c1cnc(-c2cncs2)nc1O [Example 157, 5-(Propan-2-yl)-2-(1,3-thiazol-5-yl)-pyrimidin-4-ol]
22 | 2410 nM |  | 30 nM | CC(C)c1c(O)nc(-n2ccnc2)nc1OCCN1CCCC1=O [Example 132, 1-(2-{[6-Hydroxy-2-(1H-imidazol-1-yl)-5-(propan-2-yl)pyrimidin-4-yl]oxy}ethyl)-pyrrolidin-2-one]
23 | 2410 nM |  | 55 nM | CC(C)c1c(O)nc(-n2ccnc2)nc1OCc1ccncn1 [Example 136, 2-(1H-Imidazol-1-yl)-5-(propan-2-yl)-6-(pyrimidin-4-ylmethoxy)pyrimidin-4-ol]
24 | 2090 nM |  | 27 nM | CC(C)c1c(O)nc(-n2ccnc2)nc1OCCC1CCOCC1 [Example 131, 2-(1H-Imidazol-1-yl)-6-[2-(oxan-4-yl)ethoxy]-5-(propan-2-yl)pyrimidin-4-ol]
25 | 1450 nM |  | 31 nM | CC(C)c1c(O)nc(-n2ccnc2)nc1OCc1ccccc1 [Example 134, 6-(Benzyloxy)-2-(1H-imidazol-1-yl)-5-(propan-2-yl)pyrimidin-4-ol]
26 | 1400 nM | 19 nM |  | CC(C)c1c(O)nc(-n2ccnc2)nc1OCC1(N)CC1 [Example 128, 6-[(1-Aminocyclopropyl)-methoxy]-2-(1H-imidazol-1-yl)-5-(propan-2-yl)pyrimidin-4-ol]
27 | 1330 nM |  | 30 nM | COC(=O)COc1nc(-n2ccnc2)nc(O)c1C(C)C [Example 133, Methyl 2-{[6-hydroxy-2-(1H-imidazol-1-yl)-5-(propan-2-yl)pyrimidin-4-yl]oxy}acetate]
28 | 1120 nM |  | 27 nM | CC(C)c1c(O)nc(-n2ccnc2)nc1OCCc1ccncc1 [Example 129, 2-(1H-Imidazol-1-yl)-5-(propan-2-yl)-6-[2-(pyridin-4-yl)ethoxy]pyrimidin-4-ol]
29 | 975 nM | 58 nM |  | CC(C)c1c(O)nc(-n2ccnc2)nc1OCCN(C)C [Example 137, 6-[2-(Dimethylamino)-ethoxy]-2-(1H-imidazol-1-yl)-5-(propan-2-yl)pyrimidin-4-ol]
